Test results as given in ChEMBL document CHEMBL1153203, “Proposed structural basis of interaction of piperine and related compounds with monoamine oxidases” (Bioorg Med Chem Lett, 2010).
pKi: −log10 of the molar value.

Experiments:
[1] = biological target: T1, Amine oxidase [flavin-containing] A (Rattus norvegicus, UniProt P21396); assay: Inhibition of MAOA in rat brain mitochondria
T1 sequence (P21396 whole entry): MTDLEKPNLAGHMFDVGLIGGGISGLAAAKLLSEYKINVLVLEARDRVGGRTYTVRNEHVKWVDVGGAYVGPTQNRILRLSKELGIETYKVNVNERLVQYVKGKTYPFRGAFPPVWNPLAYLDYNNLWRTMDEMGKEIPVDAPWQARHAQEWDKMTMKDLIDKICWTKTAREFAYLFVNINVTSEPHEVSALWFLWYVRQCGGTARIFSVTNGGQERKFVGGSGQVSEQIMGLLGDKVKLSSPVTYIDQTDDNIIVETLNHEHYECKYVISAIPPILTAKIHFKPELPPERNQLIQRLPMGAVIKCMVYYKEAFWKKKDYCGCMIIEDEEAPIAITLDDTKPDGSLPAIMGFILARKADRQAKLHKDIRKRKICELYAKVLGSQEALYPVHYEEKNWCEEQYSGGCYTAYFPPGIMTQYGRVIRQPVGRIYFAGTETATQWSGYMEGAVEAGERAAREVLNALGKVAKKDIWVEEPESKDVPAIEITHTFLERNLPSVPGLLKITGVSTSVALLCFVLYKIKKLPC

[2] = biological target: T2, Amine oxidase [flavin-containing] A (Mus musculus, UniProt Q64133); assay: Inhibition of mouse brain MAOA
T2 sequence (Q64133 whole entry): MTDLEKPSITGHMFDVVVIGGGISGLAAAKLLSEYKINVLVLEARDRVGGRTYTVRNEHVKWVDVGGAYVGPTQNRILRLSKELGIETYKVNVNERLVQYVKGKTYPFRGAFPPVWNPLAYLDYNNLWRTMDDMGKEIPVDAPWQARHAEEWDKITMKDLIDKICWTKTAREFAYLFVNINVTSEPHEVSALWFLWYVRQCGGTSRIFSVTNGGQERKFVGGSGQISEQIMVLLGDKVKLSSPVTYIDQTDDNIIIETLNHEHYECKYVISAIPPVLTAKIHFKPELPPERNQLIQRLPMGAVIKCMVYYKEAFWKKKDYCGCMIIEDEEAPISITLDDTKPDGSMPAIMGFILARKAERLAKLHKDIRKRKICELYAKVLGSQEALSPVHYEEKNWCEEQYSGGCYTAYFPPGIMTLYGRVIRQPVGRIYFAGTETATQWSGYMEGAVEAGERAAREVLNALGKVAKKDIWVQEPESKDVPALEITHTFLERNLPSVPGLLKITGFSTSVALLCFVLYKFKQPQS

[3] = biological target: T3, Amine oxidase [flavin-containing] B (Rattus norvegicus, UniProt P19643); assay: Inhibition of MAOB in rat brain mitochondria
T3 sequence (P19643 whole entry): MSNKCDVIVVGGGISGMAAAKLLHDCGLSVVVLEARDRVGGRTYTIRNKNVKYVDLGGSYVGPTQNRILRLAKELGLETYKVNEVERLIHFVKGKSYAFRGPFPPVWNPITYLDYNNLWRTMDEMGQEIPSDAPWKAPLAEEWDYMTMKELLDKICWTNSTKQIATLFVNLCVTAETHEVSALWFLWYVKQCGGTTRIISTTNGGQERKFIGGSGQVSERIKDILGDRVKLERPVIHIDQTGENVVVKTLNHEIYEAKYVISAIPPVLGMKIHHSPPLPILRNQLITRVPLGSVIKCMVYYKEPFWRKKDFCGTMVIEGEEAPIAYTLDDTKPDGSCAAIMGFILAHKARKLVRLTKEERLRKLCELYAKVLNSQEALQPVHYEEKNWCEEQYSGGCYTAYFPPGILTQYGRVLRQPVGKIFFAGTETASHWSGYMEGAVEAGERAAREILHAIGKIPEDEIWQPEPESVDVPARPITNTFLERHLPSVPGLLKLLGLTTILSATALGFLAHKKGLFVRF

[4] = biological target: T4, Amine oxidase [flavin-containing] B (Mus musculus, UniProt Q8BW75); assay: Inhibition of mouse brain MAOB
T4 sequence (Q8BW75 whole entry): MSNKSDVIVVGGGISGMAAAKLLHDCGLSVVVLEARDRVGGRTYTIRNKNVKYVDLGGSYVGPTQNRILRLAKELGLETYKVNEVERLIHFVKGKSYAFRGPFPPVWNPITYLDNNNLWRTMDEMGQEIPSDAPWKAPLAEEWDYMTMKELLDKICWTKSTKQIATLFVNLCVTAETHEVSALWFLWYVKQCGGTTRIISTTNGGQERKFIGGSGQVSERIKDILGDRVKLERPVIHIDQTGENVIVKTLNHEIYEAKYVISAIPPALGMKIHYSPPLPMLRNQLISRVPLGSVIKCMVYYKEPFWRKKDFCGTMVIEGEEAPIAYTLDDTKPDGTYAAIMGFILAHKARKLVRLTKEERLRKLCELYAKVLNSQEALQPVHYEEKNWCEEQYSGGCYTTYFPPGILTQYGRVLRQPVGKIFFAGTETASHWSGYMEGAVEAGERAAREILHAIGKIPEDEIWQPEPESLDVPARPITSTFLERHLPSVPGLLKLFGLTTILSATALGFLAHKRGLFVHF

Row | pKi [1] | pKi [2] | pKi [3] | pKi [4] | SMILES
1 | 4.31 | 4.72 | 4.04 | 5.50 | O=C(/C=C/C=C/c1ccc2c(c1)OCO2)N1CCCCC1 [PIPERINE]
2 |  | 4.57 |  | 5.80 | COC(=O)/C=C/C=C/c1ccc2c(c1)OCO2 [METHYL PIPERATE]
